Reference: article PMC4655872, “A quantitative assay to monitor HSV-1 ICP0 ubiquitin ligase activity in vitro” (Methods (San Diego, Calif.), 2015)

Test system: T1, GST-ICP0.241
T1 construct: gene RL2; purified from bacterial extracts; assayed with His-tagged human E1 (UBA1) and UBE2D1
Assay: near-IR western blot of ICP0 auto-ubiquitination with methylated-ubiquitin, reconstituted E1/E2/E3
Assay type: biochemical, Human alphaherpesvirus 1
Conditions: non-specific divalent cation chelator, not a specific ligand; E1 and UBE2D1 present, 1 mM MgCl2, 5 mM ATP, pH 7.5, 37 °C, 5 min preincubation, 60 min reaction

## O=C(O)CN(CCN(CC(=O)O)CC(=O)O)CC(=O)O [EDTA]
  IC50: 958 µM
